US8501733B2, “Spiroaminodihydrothiazine derivatives” (Eisai R&D Management Co., Ltd., priority 2008, dated 2013)

Tested on: Aβ42
Assay: Quantification of Aβ peptide in culture of neurons from rat fetus brain (Aβ ELISA)
Type: cell-based
Conditions: Primary cortical neuron, 72 h, IC50 for decrease in the Aβ42 concentration in the medium, three days after addition of the compound, read-out: Aβ42 production reducing effect
Method: Quantification of Aβ Peptide in Culture of Neurons from Rat Fetus Brain
(1) Rat Primary Neuronal Culture
Primary neuronal cultures were prepared from the cerebral cortex of embryonic day 18 Wistar rats (Charles River Japan, Yokohama, Japan). Specifically, the embryos were aseptically removed from pregnant rats under ether anesthesia. The brain was isolated from the embryo and immersed in an ice-cold L-15 medium (such as Invitrogen Corp. Cat #11415-064, Carlsbad, Calif., USA, or SIGMA L1518). The cerebral cortex was collected from the isolated brain under a stereoscopic microscope. The cerebral cortex fragments collected were enzymatically treated in an enzyme solution containing 0.25% trypsin (Invitrogen Corp. Cat #15050-065, Carlsbad, Calif., USA) and 0.01% DNase (Sigma D5025, St. Louis, Mo., USA) at 37° C. for 30 minutes to disperse the cells. Here, the enzymatic reaction was stopped by adding inactivated horse serum to the solution. The enzymatically treated solution was centrifuged at 1,500 rpm for five minutes to remove the supernatant. 5 to 10 ml of a medium was added to the resulting cell mass. Neurobasal medium (Invitrogen Corp. Cat #21103-049, Carlsbad, Calif., USA) supplemented with 2% B27 supplement (Invitrogen Corp. Cat #17504-044, Carlsbad, Calif., USA), 25 μM 2-mercaptoethanol (2-ME, WAKO Cat #139-06861, Osaka, Japan), 0.5 mM L-glutamine (Invitrogen Corp. Cat #25030-081, Carlsbad, Calif., USA), and Antibiotics-Antimycotics (Invitrogen Corp. Cat #15240-062, Carlsbad, Calif., USA) was used as the medium (Neurobasal/B27/2-ME). However, the above Neurobasal medium not supplemented with 2-ME (Neurobasal/B27) was used for the assay. The cells were redispersed by mild pipetting of the cell mass to which the medium was added. The cell dispersion was filtered through a 40-μm nylon mesh (Cell Strainer, Cat #35-2340, Becton Dickinson Labware, Franklin Lakes, N.J., USA) to remove the remaining cell mass, and thus a neuronal cell suspension was obtained. The neuronal cell suspension was diluted with the medium and then plated in a volume of 100 μl/well at an initial cell density of 5×10^5 cells/cm^2 in a 96-well polystyrene culture plate pre-coated with poly-L or D-lysine (Falcon Cat #35-3075, Becton Dickinson Labware, Franklin Lakes, N.J., USA coated with poly-L-lysine using the method shown below, or BIOCOAT™ cell environments Poly-D-lysine cell ware 96-well plate, Cat #35-6461, Becton Dickinson Labware, Franklin Lakes, N.J., USA). Poly-L-lysine coating was carried out as follows. 100 μg/ml of a poly-L-lysine (SIGMA P2636, St. Louis, Mo., USA) solution was aseptically prepared with a 0.15 M borate buffer (pH 8.5). […] of the solution was added to the 96-well polystyrene culture plate and incubated at room temperature for one or more hours or at 4° C. overnight or longer. Thereafter, the coated 96-well polystyrene culture plate was washed with sterile water four or more times, and then dried or rinsed with, for example, sterile PBS or medium, and used for cell plating. The plated cells were cultured in the incubator at 37° C. in 5% CO2-95% air for one day. Then, the total amount of the medium was replaced with a fresh Neurobasal/B27/2-ME medium, and then the cells were cultured for further three days.
The drug was added to the culture plate on Day 4 of culture as follows. The total amount of the medium was removed from the wells, and 180 μl/well of Neurobasal medium not containing 2-ME and containing 2% B-27 (Neurobasal/B27) was added thereto. […]

## NC1=NC2(CCOc3ccc(NC(=O)c4ncc(Br)cn4)cc32)CCS1 (centres unmarked) [Compound 15, N-(2′-amino-2,3,5′,6′-tetrahydrospiro[chromene-4,4′-[1,3]thiazin]-6-yl)-5-bromopyrimidine-2-carboxamide]
  IC50: 63 nM

## NC1=NC2(CCOc3ccc(NC(=O)c4ncc(Cl)cc4Cl)cc32)CCS1 (centres unmarked) [Compound 18, N-(2′-amino-2,3,5′,6′-tetrahydrospiro[chromene-4,4′-[1,3]thiazin]-6-yl)-3,5-dichloropyridine-2-carboxamide]
  IC50: 47 nM

## N#Cc1ccc(C(=O)Nc2ccc3c(c2)C2(CCO3)CCSC(N)=N2)nc1 (stereo not drawn) [Compound 11, (−)—N-(2′-amino-2,3,5′,6′-tetrahydrospiro[chromene-4,4′-[1,3]thiazin]-6-yl)-5-cyanopyridine-2-carboxamide]
  IC50: 53 nM

## NC1=NC2(CCOc3ccc(NC(=O)c4ccc(Br)cn4)cc32)CCS1 (centres unmarked) [Compound 16, N-(2′-amino-2,3,5′,6′-tetrahydrospiro[chromene-4,4′-[1,3]thiazin]-6-yl)-5-bromopyridine-2-carboxamide]
  IC50: 27 nM

## NC1=NC2(CCOc3ccc(NC(=O)c4ccc(C(F)(F)F)cn4)cc32)CCS1 (centres unmarked) [Compound 12, N-(2′-amino-2,3,5′,6′-tetrahydrospiro[chromene-4,4′-[1,3]thiazin]-6-yl)-5-trifluoromethylpyridine-2-carboxamide]
  IC50: 71 nM
